The record followed here is patent US4886807A, “Novel pyrimidopyrimidine derivative, process for producing it and pharmaceutical composition” (Nippon Zoki Pharmaceutical Co., Ltd., priority 1988, dated 1989).

Data set [1] concerns PCA (passive cutaneous anaphylaxis) reaction. The experiment in a line: Anti-allergic effect: PCA (passive cutaneous anaphylaxis) reaction in rats. Particulars: oral, 1 hour before challenge; for Leak of Dye: control 10.7 ± 1.0; for inhibition in vivo at 20 mg/kg / inhibition in vivo at 50 mg/kg / inhibition in vivo at 100 mg/kg: Rattus norvegicus, inhibition of dye leakage. It counts as in vivo, rats (Wister-strain, male). The protocol: PCA (passive cutaneous anaphylaxis) reaction in rats was taken as an index to an anti-allergic effect of the compound of the present invention.
In order to perform sensitization, anti-DNP-Asc (dinitrophenylated Ascaris extracts) serum diluted with saline was injected intradermally at 4 sites on the shaved back of groups of 10 Wister-strain male rats (6 weeks of age). 1 hour after oral administration of the test drug, the mixture of equivalent amounts of DNP-Asc (5 mg/ml) and 2% Evans blue were intravenously injected to generate PCA reaction. 30 minutes thereafter, rats were killed by decapitation and exsanguinated. The skin was opened in order to evaluate the leakage of blue dye. The obtained skin was dissolved in 2N potassium hydroxide, then 2N phosphoric acid and acetone were added thereto. The amount of dye was determined by measurement of absorbance at 620 nm after centrifugation.

The next data set can be described thus: Acute toxicity test. Particulars: mouse, in vivo, mice, mortality for 7 days after administration, probit method. The procedure: The test compounds were administered to groups of 10 ddy-strain male mice (weighing about 20 g). LD50 values of the compounds of the invention were calculated by the probit method based on mortality for 7 days after drug administration.

What is called inhibition in vivo is the relative decrease from the control value, in per cent. High values mean a strong effect, low ones a weak effect. As to `Cn1c(=O)c2[nH]cnc2n(C)c1=O` [Theophylline, reference compound], in data set [1] (20 mg/kg), the “Leak of Dye” value turned out to be 3.5 ± 1.3 μg/site and 20 mg/kg produced 67.3% inhibition in vivo.
As to `Cn1c(=O)c2cnc(-c3ccccc3)nc2n(C)c1=O` [compound 2, 7-phenyl-1,3-dimethylpyrimido[4,5-d]pyrimidine-2,4-dione], in data set [1] (50 mg/kg), the “Leak of Dye” value came out at 8.2 ± 0.9 μg/site and the inhibition in vivo at 50 mg/kg was 23.4%.
One may read the LD50 as the dose at which mortality reaches 50%. High values mean a less toxic substance, low ones a more toxic substance. As for `Cc1ncc2c(=O)n(C)c(=O)n(C)c2n1` [compound 3, 1,3,7-trimethylpyrimido[4,5-d]pyrimidine-2,4-dione], in “Acute toxicity test” (po), the LD50 at 168 h came to 690 mg/kg. In data set [1] (50 mg/kg), the “Leak of Dye” value is 4.2 ± 0.5 μg/site and at 50 mg/kg the inhibition in vivo was 60.7%.
As to `Cn1c(=O)c2cnc(C(F)(F)F)nc2n(C)c1=O` [compound 4, 7-trifluoromethyl-1,3-dimethylpyrimido[4,5-d]pyrimidine-2,4-dione], in data set [1] (50 mg/kg), the “Leak of Dye” value turned out to be 6.6 ± 1.1 μg/site and the inhibition in vivo at 50 mg/kg was found to be 38.3%.
With `Cn1c(=O)c2cncnc2n(C)c1=O` [compound 5, 1,3-dimethylpyrimido[4,5-d]pyrimidine-2,4-dione], in data set [1] (50 mg/kg), the “Leak of Dye” value is recorded as 4.1 ± 0.8 μg/site and the inhibition in vivo at 50 mg/kg amounted to 61.7%.
In the case of `Cn1c(=O)c2cnc(N)nc2n(C)c1=O` [compound 6, 7-amino-1,3-dimethylpyrimido[4,5-d]pyrimidine-2,4-dione], the LD50 at 168 h in “Acute toxicity test” (ip) is 140 mg/kg. In addition, the median lethal dose (LD50) at 168 h in the data set “Acute toxicity test” (po) stood at 940 mg/kg. Besides, in data set [1] (20 mg/kg), the “Leak of Dye” value was 5.0 ± 0.9 μg/site and the inhibition in vivo at 20 mg/kg is 53.3%. In addition, in data set [1] (50 mg/kg), the “Leak of Dye” value turned out to be 2.3 ± 0.7 μg/site and the inhibition in vivo at 50 mg/kg came to 78.5%. Besides, in data set [1] (100 mg/kg), the “Leak of Dye” value is reported as 0.7 ± 0.2 μg/site and testing at 100 mg/kg gave an inhibition in vivo of 93.5%.
As for `Cn1c(=O)c2cnc(N)nc2n(-c2ccccc2)c1=O` [compound 7, 7-amino-1-phenyl-3-methylpyrimido[4,5-d]pyrimidine-2,4-dione], in data set [1] (100 mg/kg), the “Leak of Dye” value was 5.4 ± 0.7 μg/site and at 100 mg/kg the inhibition in vivo was 49.5%.
Regarding `CNc1ncc2c(=O)n(C)c(=O)n(C)c2n1` [compound 8, 7-methylamino-1,3-dimethylpyrimido[4,5-d]pyrimidine-2,4-dione], in data set [1] (20 mg/kg), the “Leak of Dye” value is on record as 7.6 ± 1.6 μg/site and testing at 20 mg/kg gave an inhibition in vivo of 29%. In data set [1] (50 mg/kg), the “Leak of Dye” value amounted to 2.8 ± 0.7 μg/site and at 50 mg/kg the inhibition in vivo was 73.8%.
Regarding `Cn1c(=O)c2c(N)ncnc2n(C)c1=O` [compound 9, 5-amino-1,3-dimethylpyrimido[4,5-d]pyrimidine-2,4-dione], in data set [1] (20 mg/kg), the “Leak of Dye” value is on record as 5.9 ± 1.2 μg/site and 20 mg/kg produced 44.9% inhibition in vivo. Moreover, in data set [1] (100 mg/kg), the “Leak of Dye” value is recorded as 0.6 ± 0.1 μg/site and the inhibition in vivo at 100 mg/kg was found to be 94.4%.
In the data set “Acute toxicity test” (po), `CCn1c(=O)c2c(N)ncnc2n(CC)c1=O` [compound 10, 5-amino-1,3-diethylpyrimido[4,5-d]pyrimidine-2,4-dione] yielded a median lethal dose (LD50) at 168 h of 748 mg/kg. Besides, in data set [1] (100 mg/kg), the “Leak of Dye” value was determined as 1.6 ± 0.4 μg/site and the inhibition in vivo at 100 mg/kg stood at 85%.
As to `CC(C)Cn1c(=O)n(C)c(=O)c2c(N)ncnc21` [compound 11, 5-amino-1-iso-butyl-3-methylpyrimido[4,5-d]pyrimidine-2,4-dione], in data set [1] (100 mg/kg), the “Leak of Dye” value stood at 2.9 ± 0.8 μg/site and the inhibition in vivo at 100 mg/kg was determined as 72.9%.
For `Cc1nc(N)c2c(=O)n(C)c(=O)n(C)c2n1` [compound 12, 5-amino-1,3,7-trimethylpyrimido[4,5-d]pyrimidine-2,4-dione], the median lethal dose (LD50) at 168 h in “Acute toxicity test” (po) turned out to be 707 mg/kg. Further, in data set [1] (100 mg/kg), the “Leak of Dye” value is reported as 1.0 ± 0.3 μg/site and at 100 mg/kg the inhibition in vivo was 90.7%.
On to `Cn1c(=O)c2c(N)nc(N)nc2n(C)c1=O` [compound 14, 5,7-diamino-1,3-dimethylpyrimido[4,5-d]pyrimidine-2,4-dione], for which, in data set [1] (100 mg/kg), the “Leak of Dye” value is 1.9 ± 0.5 μg/site and the inhibition in vivo at 100 mg/kg came to 82.2%.
In the case of `CNc1ncnc2c1c(=O)n(C)c(=O)n2C` [compound 16, 5-methylamino-1,3-dimethylpyrimido[4,5-d]pyrimidine-2,4-dione], in data set [1] (100 mg/kg), the “Leak of Dye” value is 1.7 ± 0.6 μg/site and at 100 mg/kg the inhibition in vivo was 84.1%.
For `CCn1c(=O)c2cnc(N)nc2n(CC)c1=O` [compound 17, 7-amino-1,3-diethyl-pyrimido[4,5-d]pyrimidine-2,4-dione], in data set [1] (100 mg/kg), the “Leak of Dye” value turned out to be 2.4 ± 0.7 μg/site and 100 mg/kg produced 77.6% inhibition in vivo.
For `CC(C)Cn1c(=O)n(C)c(=O)c2cnc(N)nc21` [compound 18, 7-amino-1-iso-butyl 3-methylpyrimido[4,5-d]pyrimidine-2,4-dione], in data set [1] (100 mg/kg), the “Leak of Dye” value came to 4.0 ± 0.6 μg/site and at 100 mg/kg the inhibition in vivo was 62.6%.
